Experimental findings from US20250320205A1, “STAT6 DEGRADERS” (Gilead Sciences, Inc., priority 2024, published 2025) are described below.

The term DC50 denotes the concentration at which degradation of the target reaches its halfway point. The EC50 is the midpoint of the concentration-response curve. The low end stands for greater potency, the high end for weaker potency.

One assay has as its target T1, STAT6 (Homo sapiens, UniProt P42226).
T1 construct: These cells express endogenous STAT6; host or cells: HeLa LgBiT clone 4.14 (CRISPR knock-in of HiBiT into the endogenous STAT6 gene)
T1 sequence (P42226 1-847): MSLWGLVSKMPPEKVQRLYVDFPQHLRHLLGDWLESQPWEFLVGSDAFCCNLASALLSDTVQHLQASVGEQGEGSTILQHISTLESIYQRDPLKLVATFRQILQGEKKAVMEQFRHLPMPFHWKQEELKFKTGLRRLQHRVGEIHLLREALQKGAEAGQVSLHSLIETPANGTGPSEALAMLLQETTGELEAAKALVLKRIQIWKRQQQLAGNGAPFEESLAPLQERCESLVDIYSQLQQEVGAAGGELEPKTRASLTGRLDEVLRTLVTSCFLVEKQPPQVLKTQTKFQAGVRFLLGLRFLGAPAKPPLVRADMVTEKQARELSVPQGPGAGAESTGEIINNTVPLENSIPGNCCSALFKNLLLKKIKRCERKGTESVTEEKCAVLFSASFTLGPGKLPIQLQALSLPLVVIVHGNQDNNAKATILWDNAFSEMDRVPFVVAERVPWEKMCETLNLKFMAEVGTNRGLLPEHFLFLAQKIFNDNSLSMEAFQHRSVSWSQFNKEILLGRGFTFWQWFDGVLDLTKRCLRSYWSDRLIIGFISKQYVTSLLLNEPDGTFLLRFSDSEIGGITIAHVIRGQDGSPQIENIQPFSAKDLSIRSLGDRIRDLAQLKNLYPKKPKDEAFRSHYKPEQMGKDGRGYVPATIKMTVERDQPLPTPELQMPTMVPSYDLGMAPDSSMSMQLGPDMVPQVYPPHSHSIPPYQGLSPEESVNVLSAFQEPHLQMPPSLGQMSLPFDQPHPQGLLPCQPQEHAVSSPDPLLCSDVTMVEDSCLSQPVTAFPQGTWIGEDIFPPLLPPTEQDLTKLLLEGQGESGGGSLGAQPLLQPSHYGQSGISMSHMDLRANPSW
As to the kind of experiment: STAT6 Degrader Assay (HiBiT based, HeLa LgBiT clone 4.14 cells). The assay is classed as cell-based. The note with it: geometric mean across assay runs and compound batches; DC50 provided for test compounds with >80% Emax; read-out: STAT6 degradation DC50. The method, boiled down: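 DC50 (nM) comes from NanoBiT luminescence of HiBiT-knock-in STAT6 in HeLa LgBiT clone 4.14 cells, treated 4-24 h at 37° C. Luminescence reflects non-degraded STAT6, with 50 μM terfenadine wells taken as full degradation.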
A general note: HiBiT is a short tag that completes a luciferase, so light tracks the accessible tagged protein.

For assay [1], the system named is Eotaxin-3 (CCL26) release. The experiment in a line: Human Whole Blood Eotaxin-3 Assay (IL-4 stimulated). The assay is classed as cell-based. The following applies: geometric mean across assay runs and compound batches, EC50 provided for test compounds with >80% Emax. The method, boiled down:
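Lithium-heparin human whole blood preincubated 2 h at 37 °C with compounds (4-fold dilutions, triplicate, 0.5% DMSO final). Then stimulated with 400 pM final recombinant human IL-4 for 48 h. Eotaxin-3 in supernatant quantified by MSD immunoassay.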

`CNc1ccn(-c2ccnc3c2cc([C@H](C)N2CC=C(c4c(C)cc(C(=O)N5CCC(CN6CCN(c7ccc(N[C@H]8CCC(=O)NC8=O)cc7F)C[C@@H]6C)CC5)cc4F)CC2)n3C)c(=O)c1` (single isomer, unassigned) [Example 2g98]: on STAT6, the DC50 worked out at 6.9 nM. The same molecule returned an EC50 in assay [1] (Homo sapiens) of 16.7 nM.

Take `CNc1ccn(-c2ccnc3c2cc([C@@H](C)N2CC=C(c4c(F)cc(C(=O)N5CCn6nc(CN7CCC(c8ccc(NC9CCC(=O)NC9=O)cc8F)CC7)cc6C5)cc4F)CC2)n3C)c(=O)c1` (stereo partly drawn) [Example 2g103, 3-((4-(1-((5-(3,5-difluoro-4-(1-((R)-1-(1-methyl-4-(4-(methylamino)-2-oxopyridin-1(2H)-yl)-1H-pyrrolo[2,3-b]pyridin-2-yl)ethyl)-1,2,3,6-tetrahydropyridin-4-yl)benzo-yl)-4,5,6,7-tetrahydropyrazolo [1,5-a]pyrazin-2-yl)methyl)-piperidin-4-yl)-3-fluorophen-yl)amino)piperidine-2,6-dione]: at STAT6, the DC50 worked out at 8.8 nM. Besides, a half-maximal response in assay [1] (Homo sapiens) (EC50) required 13.1 nM.

Regarding `CNc1ccn(-c2ccnc3c2cc(CN2CCC(c4c(F)cc(C(=O)N5CCn6nc(CN7CCC(c8ccc(NC9CCC(=O)NC9=O)cc8F)CC7)cc6C5)cc4F)CC2)n3C)c(=O)c1` (single isomer, unassigned) [Example 2g101], the DC50 at STAT6 stood at 1 nM. Moreover, a half-maximal response in assay [1] (Homo sapiens) (EC50) required 0.4 nM.

As to `CNc1ccn(-c2ccnc3c2cc(CN2CCC(c4c(F)cc(C(=O)N5CCC(CN6CCN(c7ccc(N[C@@H]8CCC(=O)NC8=O)cc7F)CC6)CC5)cc4F)CC2)n3C)c(=O)c1` (single isomer, unassigned) [Example 2g57], the half-maximal degradation concentration (DC50) on STAT6 came out at 9.3 nM. In assay [1] (Homo sapiens), this molecule yielded an EC50 of 50.3 nM.

On to `Cc1cc(C(=O)N2CCC(CN3CCN(c4ccc(NC5CCC(=O)NC5=O)cc4F)CC3)CC2)cc(F)c1C1=CCN(Cc2cc3c(-n4ccc5c(c4=O)CCN5)ccnc3n2C)CC1` (stereo not shown) [Example 2g59, 3-((3-fluoro-4-(4-((1-(3-fluoro-5-methyl-4-(1-((1-methyl-4-(4-oxo-1,2,3,4-tetrahydro-5H-pyrrolo[3,2-c]pyridin-5-yl)-1H-pyrrolo [2,3-b]pyridin-2-yl)methyl)-1,2,3,6-tetrahydropyridin-4-yl)benzoyl)piperidin-4-yl)-methyl)piperazin-1-yl)phen-yl)amino)piperidine-2,6-dione], for which the half-maximal degradation concentration (DC50) on STAT6 was 6.1 nM. Further, in assay [1] (Homo sapiens), the half-maximal effective concentration (EC50) came to 20.4 nM.

For `Cc1cc(C(=O)N2CCn3nc(CN4CCC(c5ccc(NC6CCC(=O)NC6=O)cc5F)CC4)cc3C2)cc(F)c1C1=CCN([C@@H](C)c2cc3c(-n4ccc5c(c4=O)CCN5)ccnc3n2C)CC1` (stereo partly drawn) [Example 2g25, 3-((3-fluoro-4-(1-((5-(3-fluoro-5-methyl-4-(1-((S)-1-(1-methyl-4-(4-oxo-1,2,3,4-tetrahydro-5H-pyrrolo[3,2-c]pyridin-5-yl)-1H-pyrrolo[2,3-b]pyridin-2-yl)ethyl)-1,2,3,6-tetrahydropyridin-4-yl)benzo-yl)-4,5,6,7-tetrahydropyrazolo [1,5-a]pyrazin-2-yl)methyl)-piperidin-4-yl)phenyl)amino)-piperidine-2,6-dione], the DC50 on STAT6 was 0.6 nM. In assay [1] (Homo sapiens), this molecule had an EC50 of 0.4 nM.

In the case of `CNc1ccn(-c2ccnc3c2cc([C@H](C)N2CC=C(c4c(C)cc(C(=O)N5CCC(CN6CCN(c7ccc(N[C@@H]8CCC(=O)NC8=O)c(OC)c7)CC6)CC5)cc4F)CC2)n3C)c(=O)c1` (single isomer, unassigned) [Example 2g127], the DC50 at STAT6 is 20.8 nM. Further, in assay [1] (Homo sapiens), a half-maximal effect (EC50) was put at 9.3 nM.

Regarding `Cc1cc(C(=O)N2CCn3nc(CN4CCC(c5ccc(NC6CCC(=O)NC6=O)cc5F)CC4)cc3C2)cc(F)c1C1=CCN([C@@H](C)c2cc3c(-n4cc(F)c5c(c4=O)CCN5)ccnc3n2C)CC1` (stereo partly drawn) [Example 2g14, 3-((3-fluoro-4-(1-((5-(3-fluoro-4-(1-((S)-1-(4-(7-fluoro-4-oxo-1,2,3,4-tetra-hydro-5H-pyrrolo[3,2-c]pyridin-5-yl)-1-methyl-1H-pyrrolo[2,3-b]pyridin-2-yl)-ethyl)-1,2,3,6-tetrahydro-pyridin-4-yl)-5-methylbenzo-yl)-4,5,6,7-tetrahydropyrazolo [1,5-a]pyrazin-2-yl)methyl)-piperidin-4-yl)phenyl)amino)-piperidine-2,6-dione], the DC50 at STAT6 stood at 2.2 nM. This molecule also showed an EC50 in assay [1] (Homo sapiens) of 3.5 nM.

As for `C[C@@H](c1cc2c(-n3ccc4c(c3=O)CCN4)ccnc2n1C)N1CCC(c2ccc(C(=O)N3CCC(CN4CCN(c5ccc(N[C@@H]6CCC(=O)NC6=O)cc5F)CC4)CC3)cc2)CC1` (single isomer, unassigned) [Example 2c35], at STAT6, the half-maximal degradation concentration (DC50) was determined as 7.5 nM. The molecule also registered an EC50 in assay [1] (Homo sapiens) of 18.7 nM.

With `CNc1ccn(-c2ccnc3c2cc([C@H](C)N2CC=C(c4c(C)cc(C(=O)N5CCn6nc(CC7(O)CCN(c8ccc(NC9CCC(=O)NC9=O)cc8F)CC7)cc6C5)cc4F)CC2)n3C)c(=O)c1` (stereo partly drawn) [Example 2g26, 3-((3-fluoro-4-(4-((5-(3-fluoro-5-methyl-4-(1-((S)-1-(1-methyl-4-(4-(methyl-amino)-2-oxopyridin-1(2H)-yl)-1H-pyrrolo[2,3-b]pyridin-2-yl)ethyl)-1,2,3,6-tetrahydro-pyridin-4-yl)benzoyl)-4,5,6,7-tetrahydropyrazolo[1,5-a]pyr-azin-2-yl)methyl)-4-hydroxy-piperidin-1-yl)phenyl)amino)-piperidine-2,6-dione], the DC50 on STAT6 was determined as 1.5 nM. The same molecule returned an EC50 in assay [1] (Homo sapiens) of 0.9 nM.

Regarding `CNc1ccn(-c2ccnc3c2cc([C@H](C)N2CC=C(c4c(C)cc(C(=O)N5CCC(CN6CCN(c7ncc(NC8CCC(=O)NC8=O)cc7F)C[C@H]6C)CC5)cc4F)CC2)n3C)c(=O)c1` (stereo partly drawn) [Example 2g113, 3-((5-fluoro-6-((R)-4-((1-(3-fluoro-5-methyl-4-(1-((S)-1-(1-methyl-4-(4-(methyl-amino)-2-oxopyridin-1(2H)-yl)-1H-pyrrolo[2,3-b]pyridin-2-yl)ethyl)-1,2,3,6-tetrahydro-pyridin-4-yl)benzoyl)piperi-din-4-yl)methyl)-3-methyl-piperazin-1-yl)pyridin-3-yl)-amino)piperidine-2,6-dione], the DC50 on STAT6 worked out at 3.5 nM. Further, the EC50 in assay [1] (Homo sapiens) came to 13.8 nM.

On to `CNc1cc(=O)n(-c2ccnc3c2cc([C@H](C)N2CC=C(c4c(C)cc(C(=O)N5CCn6nc(CN7CCC(c8ccc(N[C@@H]9CCC(=O)NC9=O)cc8F)CC7)cc6C5)cc4F)CC2)n3C)cc1F` (single isomer, unassigned) [Example 2g5], for which the 50% degradation concentration (DC50) on STAT6 was 0.5 nM. Also, the response in assay [1] (Homo sapiens) was half-maximal at 2.7 nM (EC50).

In the case of `C[C@@H](c1cc2c(-n3ccc4c(c3=O)CCN4)ccnc2n1C)N1CCC(c2ccc(C(=O)N3CCN(CC4CCN(c5ccc(NC6CCC(=O)NC6=O)cc5F)CC4)CC3)cc2)CC1` (stereo partly drawn) [Example 2g53, 3-((3-fluoro-4-(4-((4-(4-(1-((S)-1-(1-methyl-4-(4-oxo-1,2,3,4-tetrahydro-5H-pyrrolo [3,2-c]pyridin-5-yl)-1H-pyrrolo[2,3-b]pyridin-2-yl)-ethyl)piperidin-4-yl)benzoyl)-piperazin-1-yl)methyl)piperi-din-1-yl)phenyl)amino)piperi-dine-2,6-dione], the DC50 on STAT6 is 47.8 nM. The molecule also returned a half-maximal effective concentration (EC50) in assay [1] of 63.1 nM.

For the molecule `CNc1ccn(-c2ccnc3c2cc([C@H](C)N2CCC(c4c(F)cc(C(=O)N5CCn6nc(CN7CCC(c8ccc(NC9CCC(=O)NC9=O)cc8F)CC7)cc6C5)cc4F)CC2)n3C)c(=O)c1` (stereo partly drawn) [Example 2g109, 3-((4-(1-((5-(3,5-difluoro-4-(1-((S)-1-(1-methyl-4-(4-(methylamino)-2-oxopyridin-1(2H)-yl)-1H-pyrrolo[2,3-b]pyridin-2-yl)ethyl)piperidin-4-yl)benzoyl)-4,5,6,7-tetra-hydropyrazolo[1,5-a]pyrazin-2-yl)methyl)piperidin-4-yl)-3-fluorophenyl)amino)piperi-dine-2,6-dione], at STAT6, the 50% degradation concentration (DC50) came out at 0.4 nM. The molecule further came in with an EC50 in assay [1] (Homo sapiens) of 0.3 nM.
